From paper PMC12068008 (International Journal of Molecular Sciences, 2024)
Where two headings read alike, the source gives them in different places.

Key:
physchem = type: physicochemical; settings: shake flask, n-octanol/water, 25 °C, 1 × 10^−4 M; read-out: logP, experimentally obtained
Description: To measure the lipophilicity (expressed as the partition coefficient) of the synthesized compounds and their constituents, using a “shake-flask” method, a two-phase system composed of n-octanol and deionized water was used. The stock solutions of the compounds were diluted with water to the concentration of 1 × 10^−4 M, and this solution was used for further investigation. […] The concentration of the compounds was calculated from their extinction coefficient at 260 nm that was previously determined.

[1] = DPPH radical scavenging assay; settings: for antioxidative ability (DPPH): 0.01, 0.1 and 1 mM, 30 min; for IC50: 30 min incubation, 25 °C
Description: DPPH (2,2-diphenyl-1-picrylhydrazyl) radical scavenging assay was used to assess free-radical scavenging activity of synthesized compounds. Initially, 1 × 10^−4 M working solution of DPPH was prepared, and 350 µL was added to 350 µL of the solution of each compound. The final concentrations of the compounds (Q, 2a, and 2b) in the samples were 1 × 10^−3 M, 1 × 10^−4 M, and 1 × 10^−5 M. The control included ethanol only and DPPH–ethanol solution without compounds. The mixtures were incubated at 25 °C in the dark for 30 min. After incubation, the absorbance of the samples at 517 nm was measured in duplicate by using a UV/Vis spectrophotometer (Lambda 35, Perkin Elmer, Waltham, MA, USA). The DPPH radical scavenging ability was calculated using the following equation:(1) Antioxidative activity(%)=Acontrol−Asample/Acontrol×100% where Asample and Acontrol represent the absorbance at 517 nm of the sample and control, respectively. All samples were analysed in duplicate.

eeAChE = eeAChE (Electrophorus electricus, UniProt O42275); assay: biochemical; settings: read-out: Percentage Inhibition AChE
Description: The abilities of compounds to inhibit AChE and BuChE activity were determined following Ellman’s procedure, with AChI and BuChI as the enzyme substrate, respectively, and DTNB as a chromogenic reagent. AChE’s and BuChE’s working solutions were prepared at 20 mM TRIS and deionized water, respectively. AChI and BuChI solutions were prepared in deionized water. […] Stock solutions (10 mM) of investigated compounds were prepared daily by dissolving solid compounds in DMSO. The reaction mixture containing phosphate buffer, DTNB, enzyme, and compound was preincubated 30 min at 37 °C. After the preincubation time, the enzyme reaction was initiated by adding appropriate substrate and left to incubate for 6 min. After incubation, 0.1 M SDS was added to stop the reaction. […] A blank assay, containing all components except the enzyme, was used to account for non-enzyme reactions. The control solution contained all components except the inhibitor. All experiments were conducted in triplicate, and the results are expressed as the mean percentage enzyme activity compared to the control value. IC50 values were determined graphically using Origin 9 Microsoft Windows.

eqBuChE = eqBuChE (Equus caballus, UniProt P81908); assay: BuChE inhibition (Ellman's procedure); type: biochemical; settings: for inhibition at 100 µM: read-out: Percentage Inhibition BuChE
Description: The abilities of compounds to inhibit AChE and BuChE activity were determined following Ellman’s procedure, with AChI and BuChI as the enzyme substrate, respectively, and DTNB as a chromogenic reagent. AChE’s and BuChE’s working solutions were prepared at 20 mM TRIS and deionized water, respectively. AChI and BuChI solutions were prepared in deionized water. A 0.01 M DTNB solution was prepared with 0.1 M phosphate buffer (pH 7) containing 0.15% (w/v) sodium bicarbonate. Stock solutions (10 mM) of investigated compounds were prepared daily by dissolving solid compounds in DMSO. The reaction mixture containing phosphate buffer, DTNB, enzyme, and compound was preincubated 30 min at 37 °C. After the preincubation time, the enzyme reaction was initiated by adding appropriate substrate and left to incubate for 6 min. After incubation, 0.1 M SDS was added to stop the reaction. Absorbance measurements were performed using a UV/Vis spectrophotometer (Lambda 35, Perkin Elmer), measuring absorbance at 412 nm. A blank assay, containing all components except the enzyme, was used to account for non-enzyme reactions. The control solution contained all components except the inhibitor. All experiments were conducted in triplicate, and the results are expressed as the mean percentage enzyme activity compared to the control value. IC50 values were determined graphically using Origin 9 Microsoft Windows.

Na^+, K^+-ATPase = settings: cited from earlier work
MRC-5 cells = assay: SRB assay, MRC-5 cells; type: cell-based; settings: Homo sapiens, MRC5, 72 h, read-out: IC50 MRC
Description: (§1) Two human breast cancer cell lines, MDA-MB-231 (HTB-26) and MDA-MB-468 (HTB-132), human cervical cancer cell line HeLa (CCL-2), and MRC-5 (CCL-171) fibroblasts were purchased from the American Type Culture Collection (ATCC, Manassas, VA, USA). All cell lines were cultured in Dulbecco’s Modified Eagle’s Medium (DMEM) with 4500 mg/L glucose and L-glutamine (Capricorn Scientific, Ebsdorfergrund, Germany), supplemented with 10% foetal bovine serum (PAN-Biotech, Aidenbach, Germany), 10,000 U/mL penicillin, and 10 mg/mL streptomycin solution (Capricorn Scientific) under standard conditions at 37 °C in a humidified 5% CO2 atmosphere (ESCO, Lifesciences Group, Singapore).
Cells were seeded on a 96-well plate (Thermo Fisher Scientific, Waltham, MA, USA) at 2 × 10^3 cells per well in DMEM medium. For the analysis of the concentration- and time-dependent effect of the analysed compounds, cell monolayers were treated 24 h after seeding with concentrations 1 × 10^−6, 1 × 10^−5, and 1 × 10^−4 M for 24, 48, or 72 h. Cell viability was detected using sulforhodamine B (SRB) assay, based on the staining of cellular proteins. The assay was performed according to the procedure described by Skehan et al.. The cells were fixed with 10% trichloroacetic acid (TCA, CARLO ERBA Reagents GmbH, Emmendingen, Germany) for 1 h at 4 °C, washed with water, and stained for 15 min with 0.4% SRB (Sigma-Aldrich Chemie GmbH, Steinheim, Germany) in 1% acetic acid. The unbound SRB dye was rinsed with 1% acetic acid, while the protein-bound dye was extracted with a 10 mM Tris base (Sigma-Aldrich). The absorbance was measured at 550 nm with a reference wavelength of 690 nm in a microplate reader (Wallac, VICTOR2 1420 Multilabel counter, PerkinElmer, Turku, Finland). The results were expressed as a percentage of the control, where the cell growth of the control is set to 100%. […] The selectivity index (SI) was determined according to the following formula:(2) SI=IC50 for fibroblast cell line/IC50 for tumour cell line […]

HeLa cells = assay: SRB assay, HeLa cells; type: cell-based; settings: Homo sapiens, HeLa, 72 h, read-out: IC50 HeLa
Description: (§2) All cell lines were cultured in Dulbecco’s Modified Eagle’s Medium (DMEM) with 4500 mg/L glucose and L-glutamine (Capricorn Scientific, Ebsdorfergrund, Germany), supplemented with 10% foetal bovine serum (PAN-Biotech, Aidenbach, Germany), 10,000 U/mL penicillin, and 10 mg/mL streptomycin solution (Capricorn Scientific) under standard conditions at 37 °C in a humidified 5% CO2 atmosphere (ESCO, Lifesciences Group, Singapore).
(§3) Cells were seeded on a 96-well plate (Thermo Fisher Scientific, Waltham, MA, USA) at 2 × 10^3 cells per well in DMEM medium. For the analysis of the concentration- and time-dependent effect of the analysed compounds, cell monolayers were treated 24 h after seeding with concentrations 1 × 10^−6, 1 × 10^−5, and 1 × 10^−4 M for 24, 48, or 72 h. Cell viability was detected using sulforhodamine B (SRB) assay, based on the staining of cellular proteins. The assay was performed according to the procedure described by Skehan et al.. The cells were fixed with 10% trichloroacetic acid (TCA, CARLO ERBA Reagents GmbH, Emmendingen, Germany) for 1 h at 4 °C, washed with water, and stained for 15 min with 0.4% SRB (Sigma-Aldrich Chemie GmbH, Steinheim, Germany) in 1% acetic acid. The unbound SRB dye was rinsed with 1% acetic acid, while the protein-bound dye was extracted with a 10 mM Tris base (Sigma-Aldrich). […] The results were expressed as a percentage of the control, where the cell growth of the control is set to 100%. […] The selectivity index (SI) was determined according to the following formula:(2) SI=IC50 for fibroblast cell line/IC50 for tumour cell line
(§4) The assay was performed two times in 4 replicates for every experimental group. The statistical significance of differences between treated and untreated cells was estimated by the independent Student’s t-test, with the level of significance set at p < 0.05.

MDA-MB-231 cells = assay: SRB assay, MDA-MB-231 cells; type: cell-based; settings: Homo sapiens, MDA-MB-231, 72 h, read-out: IC50 MDA-231
Description: as §2, §3, §4

MDA-MB-468 cells = assay: SRB assay, MDA-MB-468 cells; type: cell-based, human; settings: Homo sapiens, MDA-MB-468, 72 h, read-out: IC50 MDA-468
Description: as §1
Cells were seeded on a 96-well plate (Thermo Fisher Scientific, Waltham, MA, USA) at 2 × 10^3 cells per well in DMEM medium. For the analysis of the concentration- and time-dependent effect of the analysed compounds, cell monolayers were treated 24 h after seeding with concentrations 1 × 10^−6, 1 × 10^−5, and 1 × 10^−4 M for 24, 48, or 72 h. Cell viability was detected using sulforhodamine B (SRB) assay, based on the staining of cellular proteins. The assay was performed according to the procedure described by Skehan et al.. The cells were fixed with 10% trichloroacetic acid (TCA, CARLO ERBA Reagents GmbH, Emmendingen, Germany) for 1 h at 4 °C, washed with water, and stained for 15 min with 0.4% SRB (Sigma-Aldrich Chemie GmbH, Steinheim, Germany) in 1% acetic acid. The unbound SRB dye was rinsed with 1% acetic acid, while the protein-bound dye was extracted with a 10 mM Tris base (Sigma-Aldrich). The absorbance was measured at 550 nm with a reference wavelength of 690 nm in a microplate reader (Wallac, VICTOR2 1420 Multilabel counter, PerkinElmer, Turku, Finland). The results were expressed as a percentage of the control, where the cell growth of the control is set to 100%. IC50, defined as the concentration that caused a 50% loss of cell growth, was calculated by non-linear regression analysis with the ED50plus v1.0 software. The selectivity index (SI) was determined according to the following formula:(2) SI=IC50 for fibroblast cell line/IC50 for tumour cell line
as §4

eeAChE, sequence (O42275 24-633): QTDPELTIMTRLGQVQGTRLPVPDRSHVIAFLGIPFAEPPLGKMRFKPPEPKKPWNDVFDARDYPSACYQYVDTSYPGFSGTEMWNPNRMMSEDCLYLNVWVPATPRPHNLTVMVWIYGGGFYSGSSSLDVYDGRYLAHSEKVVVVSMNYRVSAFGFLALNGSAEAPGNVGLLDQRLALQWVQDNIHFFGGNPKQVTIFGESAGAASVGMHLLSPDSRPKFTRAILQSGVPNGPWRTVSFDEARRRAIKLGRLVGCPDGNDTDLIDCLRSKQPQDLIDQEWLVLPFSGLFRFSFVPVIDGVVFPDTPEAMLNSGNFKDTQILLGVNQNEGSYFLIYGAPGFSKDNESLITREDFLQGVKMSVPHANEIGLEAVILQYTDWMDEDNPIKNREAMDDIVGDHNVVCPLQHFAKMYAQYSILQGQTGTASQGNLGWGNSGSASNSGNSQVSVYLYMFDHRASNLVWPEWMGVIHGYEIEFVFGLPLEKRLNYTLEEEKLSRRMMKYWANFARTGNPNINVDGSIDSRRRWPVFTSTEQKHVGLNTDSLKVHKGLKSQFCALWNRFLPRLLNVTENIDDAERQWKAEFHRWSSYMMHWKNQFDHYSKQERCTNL
eqBuChE, sequence (P81908 whole entry): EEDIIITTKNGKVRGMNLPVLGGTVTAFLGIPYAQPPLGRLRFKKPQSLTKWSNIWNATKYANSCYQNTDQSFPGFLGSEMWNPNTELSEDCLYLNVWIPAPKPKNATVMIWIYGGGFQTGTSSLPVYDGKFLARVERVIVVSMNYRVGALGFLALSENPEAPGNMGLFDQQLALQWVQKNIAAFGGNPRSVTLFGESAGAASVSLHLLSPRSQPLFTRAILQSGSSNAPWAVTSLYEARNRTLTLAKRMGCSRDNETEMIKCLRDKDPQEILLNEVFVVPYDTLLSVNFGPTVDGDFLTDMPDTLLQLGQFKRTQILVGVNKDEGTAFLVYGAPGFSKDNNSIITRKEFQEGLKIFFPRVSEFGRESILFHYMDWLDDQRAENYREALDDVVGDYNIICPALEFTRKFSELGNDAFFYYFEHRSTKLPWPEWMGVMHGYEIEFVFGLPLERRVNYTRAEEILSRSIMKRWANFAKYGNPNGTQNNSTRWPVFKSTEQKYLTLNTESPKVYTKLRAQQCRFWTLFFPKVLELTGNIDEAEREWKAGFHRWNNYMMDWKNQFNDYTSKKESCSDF

| SMILES | logP at 30 min (physchem) | antioxidative ability (DPPH) [1] | inhibition at 100 µM (eeAChE) [%] | inhibition at 100 µM (eqBuChE) [%] | IC50 (Na^+, K^+-ATPase; literature value ref 35) [mM] | IC50 [1] [µM] | IC50 (eqBuChE) [µM] | IC50 (MRC-5 cells) [µM] | IC50 (HeLa cells) [µM] | IC50 (MDA-MB-231 cells) [µM] | IC50 (MDA-MB-468 cells) [µM] | IC50 (Na^+, K^+-ATPase; literature value ref 36) [mM] |
| --- | --- | --- | --- | --- | --- | --- | --- | --- | --- | --- | --- | --- |
| c1ccc2c(c1)CCNC2 [Compound 1a, 1,2,3,4-tetrahydroisoquinoline, reference compound] | 1.4 | did not show antioxidative ability | 2 | 2 | 25 |  |  |  |  |  |  |  |
| O=C1O[C@H]([C@@H](O)CO)C(O)=C1O [Ascorbic acid] |  |  |  |  |  | 0.62 |  |  |  |  |  |  |
| O=c1c(O)c(-c2ccc(O)c(O)c2)oc2cc(O)cc(O)c12 [Quercetin, reference compound] |  |  | 58 | 72 |  | 19.3 | 22.1 | 10.4 ± 0.52 | 15.1 ± 2.67 | 76.6 ± 3.8 | 65.9 ± 3.3 | 0.0463 |
| COc1cc2c(cc1OC)CNCC2 [Compound 1b, 6,7-dimethoxy-1,2,3,4-tetrahydroisoquinoline, reference compound] | 1.14 | did not show antioxidative ability | 14.1 | 17.7 |  |  |  |  |  |  |  |  |
